{"source": "patent US9480695B2", "about": "“Methods for inducing orexin neurons and agent for treating narcolepsy or eating disorder” (THE UNIVERSITY OF TOKYO, priority 2011, dated 2016)", "test_system": "Mouse ES cells (J1 strain)", "test": "Hcrt expression in mouse ES cells, SFEB/gfCDM differentiation culture system, RT-PCR", "assay_type": "cell-based", "settings": "1.0 mM from 7th day of differentiation culturing", "experimental": "Mouse ES cells (J1 strain) which had been maintained in a medium for an ES cell were seeded on a 96-well low adhering round-bottom culture dish (Nunc) so that the cell count became 10,000 cells per well, and cultured with gfCDM [IMDM/F12 (Invitrogen) added with 5 mg/ml BSA (SIGMA), 450 μM Monothioglycerol (Wako), 1× chemically defined lipid concentrate (Invitrogen), 50 U/ml penicillin/50 μg/ml streptomycin] for 7 days. The cells were cultured in 150 μl of a medium per well. On 7th day of differentiation culturing, the medium was exchanged with a DFK medium [DMEM/F12 (Invitrogen) added with 7 g/1 glucose, 10% KSR, 50 U/ml penicillin/50 μg/ml streptomycin], and on 10th day, half the amount of the medium was exchanged with a DFNB medium [7 g/1 glucose, 1×N2 (Wako), 1×B27 (Invitrogen)] containing 10 ng/ml CNTF. On 13th day of culturing, cells were detached with 0.05% trypsin/EDTA, seeded on a culture dish (Falcon) which had been treated with poly-D-lysine/laminin so that the cell count became 4.8×10^6 cells per 10 cm culture dish, and cultured in a DFNB medium containing 10% FBS, 10 ng/ml CNTF, 50 ng/ml BDNF and 50 ng/ml NT3. The medium was exchanged every 3 days. On 25th day of differentiation culturing, cells were collected and pelletized by a centrifugation operation to remove the culture medium. Thereafter, the pellets were immediately frozen in liquid nitrogen, and stored at −80° C. until use.\nThe analysis was performed by the same method as that of Example 1.", "data": [{"smiles": "CC(=O)N[C@@H]1C(O)O[C@H](CO)[C@@H](O)[C@@H]1O", "note": "(stereo partly drawn) [ManNAc, N-acetyl-D-mannosamine]", "values": [{"measurement": "Level of Hcrt expression compared with Neu5Ac-added section", "value": "high expression of Hcrt was observed"}, {"measurement": "Expression of Hcrt", "setting": "cells collected on 25th day, FIG. 5", "value": "expression of Hcrt was recognized"}]}]}
